Measured values from ChEMBL document CHEMBL1152671, “Structure-activity relationship studies of manzamine A: amidation of positions 6 and 8 of the beta-carboline moiety” (Bioorg Med Chem, 2009).
Values after ≈ are worked out from the molar mass of the structure shown. Active and inactive are the calls of the source. The rule behind the calls is not given here.

Experiments:
[1] = tested on: Plasmodium falciparum; test: Antimalarial activity against chloroquine-sensitive Plasmodium falciparum D6 infected in African green monkey (Cercopithecus aethiops) Vero cells assessed as parasite LDH activity after 72 hrs; type: functional, organism-based
[2] = tested on: Plasmodium falciparum; test: Antimalarial activity against chloroquine-resistant Plasmodium falciparum W2 infected in African green monkey (Cercopithecus aethiops) (Cercopithecus aethiops) Vero cells assessed as parasite LDH activity after 72 hrs; type: functional, organism-based
[3] = tested on: Candida albicans; test: Antifungal activity against Candida albicans by modified NCCLS method; type: functional, organism-based
[4] = tested on: Cryptococcus neoformans; test: Antifungal activity against Cryptococcus neoformans by modified NCCLS method; type: functional, organism-based
[5] = tested on: Mycobacterium intracellulare; test: Antibacterial activity against Mycobacterium intracellular by alamar blue assay; type: functional, organism-based
[6] = tested on: Candida albicans
Description: Antifungal activity against Candida albicans after 24 hrs by alamar blue assay

[7] = tested on: Vero; test: Cytotoxicity against african green monkey Vero cells up to 470 nM by neutral red assay; type: cell-based; details: chlorocebus sabaeus
[8] = tested on: Cryptococcus neoformans; test: Antifungal activity against Cryptococcus neoformans after 24 hrs by alamar blue assay; type: functional
[9] = tested on: Mycobacterium intracellulare; test: Antibacterial activity against Mycobacterium intracellular after 24 hrs by alamar blue assay; type: functional
[10] = tested on: Aspergillus fumigatus; test: Antifungal activity against Aspergillus fumigatus by modified NCCLS method; type: functional, organism-based
[11] = tested on: Escherichia coli; test: Antibacterial activity against Escherichia coli by modified NCCLS method; type: functional, organism-based
[12] = tested on: Pseudomonas aeruginosa; test: Antibacterial activity against Pseudomonas aeruginosa by modified NCCLS method; type: functional, organism-based
[13] = tested on: Aspergillus fumigatus
Description: Antifungal activity against Aspergillus fumigatus after 24 hrs by alamar blue assay

[14] = Cryptococcus neoformans, read-out: IC50

Row | SMILES | IC50 [1] [µM] | IC50 [2] [µM] | IC50 ([3]; Candida albicans, read-out: IC50) [µM] | IC50 [4, 14] [µM] | IC50 [5] [µM] | MIC [6] | Activity [7] | IC50 [3] | IC50 [4] | MIC [8] | MIC [9] [µM] | IC50 [10] | Activity [11] | Activity [12] | MIC [13]
1 | Oc1cccc2c1[nH]c1c(C3=C[C@@]4(O)CC/C=C\CCCCN5CC[C@@H]3[C@]3(C[C@@H]6/C=C\CCCCN6[C@H]34)C5)nccc12 | 0.011 | 0.014 | 6.21 | 3.55 | 0.177 | inactive | – | – | – | – | – | – | – | – | –
2 | CC(C)C(=O)Nc1ccc2[nH]c3c(C4=C[C@@]5(O)CC/C=C\CCCCN6CC[C@@H]4[C@]4(C[C@@H]7/C=C\CCCCN7[C@H]45)C6)nccc3c2c1 [6-ISOBUTAMIDOMANZAMINE A] | 1.1 | 1.55 | – | – | 3.16 | inactive | Non-toxic | Not Active | Not Active | inactive | 3.95 (≈ 2.5 µg/mL) | Not Active | inactive | inactive | inactive
3 | CCC(=O)Nc1ccc2[nH]c3c(C4=C[C@@]5(O)CC/C=C\CCCCN6CC[C@@H]4[C@]4(C[C@@H]7/C=C\CCCCN7[C@H]45)C6)nccc3c2c1 [6-N-PROPAMIDOMANZAMINE A] | 1.16 | 1.94 | – | – | 5.65 | inactive | Non-toxic | Not Active | Not Active | inactive | 8.07 (≈ 5 µg/mL) | Not Active | inactive | inactive | inactive
4 | CCCC(=O)Nc1ccc2[nH]c3c(C4=C[C@@]5(O)CC/C=C\CCCCN6CC[C@@H]4[C@]4(C[C@@H]7/C=C\CCCCN7[C@H]45)C6)nccc3c2c1 [6-N-BUTAMIDOMANZAMINE A] | 1.15 | 1.89 | – | – | 4.74 | inactive | Non-toxic | Not Active | Not Active | inactive | 7.89 (≈ 5 µg/mL) | Not Active | inactive | inactive | inactive
5 | CC(C)(C)CC(=O)Nc1cccc2c1[nH]c1c(C3=C[C@@]4(O)CC/C=C\CCCCN5CC[C@@H]3[C@]3(C[C@@H]6/C=C\CCCCN6[C@H]34)C5)nccc12 | 0.139 | 0.127 | – | 14.4 | 1.51 | inactive | Non-toxic | Not Active | – | inactive | 3.78 (≈ 2.5 µg/mL) | Not Active | inactive | inactive | inactive
6 | CCCC(=O)Nc1cccc2c1[nH]c1c(C3=C[C@@]4(O)CC/C=C\CCCCN5CC[C@@H]3[C@]3(C[C@@H]6/C=C\CCCCN6[C@H]34)C5)nccc12 [8-N-BUTAMIDOMANZAMINE A] | 0.035 | 0.121 | – | 23.7 | 0.868 | inactive | Non-toxic | Not Active | – | inactive | 1.97 (≈ 1.25 µg/mL) | Not Active | inactive | inactive | inactive
7 | CCCCCCC(=O)Nc1cccc2c1[nH]c1c(C3=C[C@@]4(O)CC/C=C\CCCCN5CC[C@@H]3[C@]3(C[C@@H]6/C=C\CCCCN6[C@H]34)C5)nccc12 [8-N-OCTAMIDOMANZAMINE A] | 0.055 | 0.043 | – | 1.01 | 0.508 | inactive | Non-toxic | Not Active | – | 29 µM (≈ 19.6 µg/mL) | 1.81 (≈ 1.23 µg/mL) | Not Active | inactive | inactive | inactive
8 | CC(C)C(=O)Nc1cccc2c1[nH]c1c(C3=C[C@@]4(O)CC/C=C\CCCCN5CC[C@@H]3[C@]3(C[C@@H]6/C=C\CCCCN6[C@H]34)C5)nccc12 [8-ISOBUTAMIDOMANZAMINE A] | 0.158 | 0.205 | – | 3.16 | 1.03 | inactive | Non-toxic | Not Active | – | inactive | 1.97 (≈ 1.25 µg/mL) | Not Active | inactive | inactive | inactive
9 | O=C(O)c1cn(C2CC2)c2cc(N3CCNCC3)c(F)cc2c1=O [CIPROFLOXACIN] | – | – | – | – | 1.06 | – | – | – | – | – | – | – | – | – | –
